The source of these data is PMC7158045 (BMC Plant Biology, 2020).

Each structure is given as a SMILES string. Counter-ions that a name gives are not always drawn.

What all share (assay): biochemical
In assay [1] the target is T1, ZmDRIK1 (DROUGHT RESPONSIVE INACTIVE KINASE 1), kinase domain (Zea mays, UniProt C0P4K9).
T1 construct: gene ZEAMMB73_Zm00001d028770; ZmDRIK1-KD R187-S514 (kinase domain)
T1 sequence (C0P4K9 187-514): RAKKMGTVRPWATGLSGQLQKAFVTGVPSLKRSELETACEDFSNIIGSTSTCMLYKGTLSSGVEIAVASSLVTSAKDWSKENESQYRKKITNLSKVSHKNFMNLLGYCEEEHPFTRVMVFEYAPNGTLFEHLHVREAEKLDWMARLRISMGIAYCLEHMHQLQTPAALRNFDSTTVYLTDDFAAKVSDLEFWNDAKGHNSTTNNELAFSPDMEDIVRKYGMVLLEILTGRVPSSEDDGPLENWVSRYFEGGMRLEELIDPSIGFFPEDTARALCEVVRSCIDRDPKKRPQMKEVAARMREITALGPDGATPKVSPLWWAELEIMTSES
The following applies: read-out: dTm B, sheet ZmDRIK1-R187-S514;; DSF, Boltzmann fit, 0.1% DMSO.

Assay [2] deals with T2, ZmDRIK1-K217-P492 (Zea mays, UniProt C0P4K9).
T2 construct: kinase domain, K217-P492
T2 sequence (C0P4K9 1-514): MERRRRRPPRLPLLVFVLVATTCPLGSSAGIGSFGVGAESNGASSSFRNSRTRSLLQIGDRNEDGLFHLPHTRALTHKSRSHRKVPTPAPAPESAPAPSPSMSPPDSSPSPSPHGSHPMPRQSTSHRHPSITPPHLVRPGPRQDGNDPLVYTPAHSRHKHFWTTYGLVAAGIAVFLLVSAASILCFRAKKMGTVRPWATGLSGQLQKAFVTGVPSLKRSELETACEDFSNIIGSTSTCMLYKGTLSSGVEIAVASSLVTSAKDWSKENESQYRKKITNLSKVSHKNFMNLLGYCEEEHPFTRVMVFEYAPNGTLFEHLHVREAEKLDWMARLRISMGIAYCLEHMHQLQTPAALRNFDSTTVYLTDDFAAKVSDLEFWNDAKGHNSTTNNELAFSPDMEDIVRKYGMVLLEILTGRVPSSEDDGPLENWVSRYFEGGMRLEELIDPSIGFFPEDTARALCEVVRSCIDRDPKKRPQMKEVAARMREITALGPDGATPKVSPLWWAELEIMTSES
The following applies: read-out: dTm B, sheet ZmDRIK1-K217-P492;; DSF, Boltzmann fit, 0.1% DMSO.

Assay [3] addresses T3, ZmDRIK1-R187-P492 (Zea mays, UniProt C0P4K9).
T3 construct: kinase domain, R187-P492
T3 sequence (C0P4K9 1-514): T2 sequence (C0P4K9 1-514)
The following applies: read-out: dTm B, DSF, Boltzmann fit, 0.1% DMSO.

In assay [4] the target is T4, ZmDRIK1-K217-S514 (Zea mays, UniProt C0P4K9).
T4 construct: kinase domain, K217-S514
T4 sequence (C0P4K9 1-514): T2 sequence (C0P4K9 1-514)
The following applies: read-out: dTm B, sheet ZmDRIK1-K217-S514;; DSF, Boltzmann fit, 0.1% DMSO.

Regarding `CCn1c(-c2nonc2N)nc2c(C#CC(C)(C)O)ncc(OC[C@H]3CCCNC3)c21` [GSK690693], the ΔTm at 10 µM in assay [1] was -0.678 °C; in assay [2] it was -1.08 °C; in assay [3], -0.153 °C; in assay [4], -0.204 °C.
On to `CCC[C@H](NC(=O)/C(C#N)=C/c1cccc(Br)n1)c1ccccc1` [Degrasyn (WP1130)], for which the ΔTm at 10 µM in assay [1] is -5.72 °C; in assay [2] it was -5.21 °C; in assay [3], -3.03 °C; in assay [4] it was -3.28 °C.
For `COc1cc(Nc2c(C#N)cnc3cc(OCCCN4CCN(C)CC4)c(OC)cc23)c(Cl)cc1Cl` [Bosutinib (SKI-606)], in that order: -0.814 °C, -1.46 °C, -0.491 °C and -0.473 °C.
With `O=C(c1ccc(Nc2nccc(-c3cc4ccccc4s3)n2)cc1)N1CCC(N2CCCC2)CC1` [IKK-16 (IKK Inhibitor VII)], the ΔTm at 10 µM was -0.0967 °C in assay [1], -0.786 °C in assay [2], 0.0892 °C in assay [3] and 0.121 °C in assay [4].
For `CN1CCC(CNc2ccc3ncc(-c4cccc(OC(F)(F)F)c4)n3n2)CC1` [SGI-1776 free base], the ΔTm at 10 µM is -1.1 °C in assay [1], -0.576 °C in assay [2], -0.27 °C in assay [3] and -0.336 °C in assay [4].
Taken in the same sequence, the figures for `Cc1ccc(C(=O)Nc2cccc(C(F)(F)F)c2)cc1Nc1nc(-c2cccnc2)nc2c1cnn2C` [NVP-BHG712] were -2.05 °C, -0.914 °C, -0.0503 °C and 0.0902 °C.
Taken in the same sequence, the figures for `CCN1/C(=C/C(C)=O)Sc2ccc(OC)cc21` [TG003] were -0.488 °C, -1.11 °C, -0.291 °C and -0.33 °C.
For `C=CC(=O)Nc1cccc(Nc2nc(Nc3ccc(OCCOC)cc3)ncc2F)c1` [AVL-292], the ΔTm at 10 µM in assay [1] is -0.365 °C; in assay [2] it was 0.368 °C; in assay [3], 1.32 °C; in assay [4], 0.698 °C.
For the molecule `CN(C)CCCn1cc(C2=C(c3c[nH]c4ccccc34)C(=O)NC2=O)c2ccccc21` [GF109203X], the ΔTm at 10 µM in assay [1] is -0.748 °C; in assay [2] it was -1.16 °C; in assay [3] it was -0.337 °C; in assay [4] it was -0.324 °C.
For `COc1cc2nccc(Oc3ccc(NC(=O)NC4CC4)c(Cl)c3)c2cc1C(N)=O` [Lenvatinib (E7080)], in that order: -1.04 °C, -1.02 °C, -0.406 °C and -0.299 °C.
Taken in the same sequence, the figures for `CNC(=O)c1nn(C)c2c1C(C)(C)Cc1cnc(Nc3ccc(N4CCN(C)CC4)cc3)nc1-2` [Milciclib (PHA-848125)] were -0.178 °C, -0.0433 °C, -0.101 °C and -0.233 °C.
Taken in the same sequence, the figures for `Cn1cc(C2=C(c3cn(CCCSC(=N)N)c4ccccc34)C(=O)NC2=O)c2ccccc21` [Ro 31-8220 Mesylate] were -0.819 °C, -1.24 °C, -0.197 °C and -0.33 °C.
As to `Cc1ccc(F)c(NC(=O)Nc2ccc(-c3cccc4[nH]nc(N)c34)cc2)c1` [Linifanib (ABT-869)], the ΔTm at 10 µM in assay [1] was -0.711 °C; in assay [2], -4.15 °C; in assay [3], -0.414 °C; in assay [4], -0.66 °C.
As to `COc1cc2ncnc(Nc3ccc(F)c(Cl)c3)c2cc1NC(=O)/C=C/CN1CCCCC1` [Dacomitinib (PF299804)], the ΔTm at 10 µM in assay [1] is -0.735 °C; in assay [2], -0.0919 °C; in assay [3], -0.258 °C; in assay [4], -0.1 °C.
For `C[C@@H]1COC(Nc2ccc3ncnc(Nc4ccc(OCc5nccs5)c(Cl)c4)c3c2)=N1` [Varlitinib], in that order: -0.97 °C, -0.993 °C, -0.314 °C and -0.516 °C.
